Data reported in patent US8568690B2, “MRI contrast agents and high-throughput screening by MRI” (The Board of Trustees of the University of Illinois, priority 2007, dated 2013).

Key:
[1] = system: adenosine aptamer (linker-Adap) CLIO sensor; assay: Adenosine aptamer CLIO sensor, T2 weighted MRI and T2 relaxation time; format: binding; conditions: for change in contrast of sensor (selectivity control): sensor incubated with 5 mM nucleoside
Experimental: SPIO nanoparticles were chosen as the contrast agents to functionalize by aptamers since it is efficient at dephasing the spins of neighboring water protons, leading to change in T2 [36, 37]. It has also been shown that oligonucleotide functionalized cross-linked dextran coated superparamagnetic iron oxide nanoparticles (CLIOs) form clusters when linked with a complementary sequence. The adenosine sensor comprised CLIO aggregates that are prepared using three components: CLIO functionalized with 3′- or 5′-thiol modified DNA, called 3′Adap-CLIO and 5′Adap-CLIO respectively and a linker DNA, called linker-Adap that can hybridize to both the 3′- and 5′Adap-CLIOs, leading to the formation of clusters.
One segment of the linker is the sequence for the adenosine aptamer. Seven bases of this aptamer are involved in the hybridization with the 5′Adap-CLIO. In the presence of adenosine the aptamer undergoes structure switching in order to form the adenosine binding pocket, which results in disruption of base pairing interactions with 5′Adap-CLIO. The five remaining base pairs between the linker-Adap and the 5′Adap-CLIO are not enough to hold them together at room temperature leading to disassembly of clusters. The dispersed nanoparticles result in a higher T2 as compared to the clusters; and thus the adenosine induced disassembly can be monitored as an increase in T2 values and enhancement in brightness of T2 weighted MRI images.
The prepared sensor was then aliquoted into the wells of a microplate, with progressively increasing amount of adenosine and a T2 weighted MRI image was obtained. An increase in adenosine concentration led to an increase in the brightness of the image, as illustrated in line a) of FIG. 6. This increase was attributed to the increase in T2 due to disassembly of CLIO clusters into smaller particles. It is worth noting that even at 10 μM adenosine a detectable change in contrast was observed.
250 μl of sample was aliquoted into the wells of a microplate and varying amounts of adenosine was added in each well. The samples with serum were prepared by adding 10% human serum. Volume change was compensated by addition of distilled water.

[2] = biological target: Adenosine Deaminase (ADA) (Bos taurus, UniProt P56658); conditions: adenosine and test molecule, tris-acetate buffer pH 8.0 (FIG. 19) and human serum (FIG. 20)
Sequence of Adenosine Deaminase (ADA) (P56658 whole entry): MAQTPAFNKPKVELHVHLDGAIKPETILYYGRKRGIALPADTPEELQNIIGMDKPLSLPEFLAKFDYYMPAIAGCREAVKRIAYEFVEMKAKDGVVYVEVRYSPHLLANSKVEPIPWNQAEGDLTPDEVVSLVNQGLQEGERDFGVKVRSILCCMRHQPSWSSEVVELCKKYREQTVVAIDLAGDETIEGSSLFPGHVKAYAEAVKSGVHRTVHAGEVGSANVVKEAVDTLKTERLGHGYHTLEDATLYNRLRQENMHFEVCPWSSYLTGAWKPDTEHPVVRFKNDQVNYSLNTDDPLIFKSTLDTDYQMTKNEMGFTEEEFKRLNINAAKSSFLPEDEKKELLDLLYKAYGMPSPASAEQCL
Experimental: The screening of ADA inhibitors can be monitored with an aptamer system whereby an MRI signal is generated when a molecule inhibits the ADA.
For example, an aggregate of paramagnetic particles can be used to monitor the screening. To this end, a mixture including paramagnetic particles that are attached to oligonucleotides is prepared. A bridge including an aptamer that binds adenosine is also present in the mixture. If the tested molecule is not effective in inhibiting ADA, adenosine is transformed into inosine, and the complementary portions of the oligonucleotides are hybridized to the bridge. Aggregation of the particles into an aggregate follows, and an increase in MRI contrast is not observed.
The resulting dehybridization leads to deaggregation of the aggregate, generating an MRI signal (FIG. 18).
The screening was monitored by incubating with aggregates that included CLIO nanoparticles attached to polynucleotides and a bridge comprising an ADA-binding aptamer. The screening of FIG. 19 was carried out in the presence of tris-acetate buffer at pH 8.0. […]
T2-weighted MRI images were obtained on a 4.7 T NMR instrument using a spin echo pulse sequence with variable echo time (TE=20−100 ms) and a repetition time (TR) of 2000 ms. Relaxation times were measured on the same instrument with the Carr-Purcell-Meiboom-Gill (CPMG) pulse sequence.

Question: How did the “change in contrast of sensor (selectivity control)” value (“change … (selectivity control)” for short) [1] turn out when `O=c1ccn([C@@H]2O[C@H](CO)[C@@H](O)[C@H]2O)c(=O)[nH]1` [uridine] was run?
Answer: a significant change in contrast was not observed

Question: With `Nc1nc2c(ncn2[C@@H]2O[C@H](CO)[C@@H](O)[C@H]2O)c(=O)[nH]1` [guanosine] as the compound, how does the “change … (selectivity control)” value [1] read?
Answer: a significant change in contrast was not observed

Question: With `Nc1ccn([C@@H]2O[C@H](CO)[C@@H](O)[C@H]2O)c(=O)n1` [control molecule 37, Cytidine] as the compound, how does the “change … (selectivity control)” value [1] read?
Answer: a significant change in contrast was not observed

Question: “erythro-9-(2-hydroxy-3-nonyl)adenine hydrochloride [EHNA]” was tested. Which “ADA inhibition read as deaggregation of aggregates / increase in MRI brightness” value [2] did it give?
Answer: inhibited the conversion of adenosine into inosine

Question: `Nc1ncnc2c1ncn2[C@@H]1O[C@H](CO)[C@@H](O)[C@H]1O` [adenosine, Adenosine] was tested. Which “MRI contrast of sensor in serum” value ([1]; 10% human serum, adenosine concentration gradient) did it give?
Answer: the contrast within the concentration gradient increases

Question: And the “adenosine concentration at which a detectable change in contrast was observed” value ([1]; T2 weighted MRI image, sensor ~20 μg Fe ml-1)?
Answer: 10 µM

Question: What about the “T2 relaxation time of sensor” value ([1]; at 2.5 Mm adenosine, 36 ms at 0 adenosine) of the same compound?
Answer: 63 ms
